From ChEMBL document CHEMBL1147208, “Asymmetric synthesis of chiral piperazinylpropylisoxazoline ligands for dopamine receptors” (Eur J Med Chem, 2007)

Experiments:
[1] = target: D(2) dopamine receptor (Homo sapiens, UniProt P14416); assay: Displacement of [3H]spiperone from human cloned dopamine receptor D2 long expressed in CHO cells; format: cell-based
[2] = target: D(3) dopamine receptor (Homo sapiens, UniProt P35462); assay: biochemical
Description: Displacement of [3H]YM-09151-2 from human cloned dopamine D3 receptor expressed in CHO cells

[3] = target: T1, D(4) dopamine receptor (Homo sapiens, UniProt P21917); assay: Displacement of [3H]YM-09151-2 from human cloned dopamine D4 receptor expressed in CHO cells
T1 sequence (P21917 whole entry): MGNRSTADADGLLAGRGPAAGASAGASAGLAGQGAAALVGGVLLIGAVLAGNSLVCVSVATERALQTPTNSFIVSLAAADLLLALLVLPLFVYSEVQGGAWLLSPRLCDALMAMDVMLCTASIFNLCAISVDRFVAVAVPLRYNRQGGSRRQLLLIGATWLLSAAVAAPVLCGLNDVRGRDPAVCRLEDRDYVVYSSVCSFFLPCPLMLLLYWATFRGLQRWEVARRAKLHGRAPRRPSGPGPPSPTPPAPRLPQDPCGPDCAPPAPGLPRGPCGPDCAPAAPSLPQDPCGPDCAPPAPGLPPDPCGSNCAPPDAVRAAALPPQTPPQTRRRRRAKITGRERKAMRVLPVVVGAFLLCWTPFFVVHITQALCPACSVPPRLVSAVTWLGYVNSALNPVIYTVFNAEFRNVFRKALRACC

D(2) dopamine receptor, sequence (P14416 whole entry): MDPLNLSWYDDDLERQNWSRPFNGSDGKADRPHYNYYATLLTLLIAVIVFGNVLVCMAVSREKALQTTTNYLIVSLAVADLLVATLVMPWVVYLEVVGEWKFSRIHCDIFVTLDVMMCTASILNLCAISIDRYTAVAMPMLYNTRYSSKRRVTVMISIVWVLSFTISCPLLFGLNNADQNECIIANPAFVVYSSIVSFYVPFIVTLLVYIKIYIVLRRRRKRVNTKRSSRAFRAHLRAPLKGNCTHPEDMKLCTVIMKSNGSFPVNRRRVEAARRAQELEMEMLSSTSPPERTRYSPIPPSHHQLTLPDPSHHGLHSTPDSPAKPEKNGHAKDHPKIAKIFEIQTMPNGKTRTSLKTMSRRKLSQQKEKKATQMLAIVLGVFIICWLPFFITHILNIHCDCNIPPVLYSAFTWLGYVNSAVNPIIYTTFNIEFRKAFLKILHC
D(3) dopamine receptor, sequence (P35462 whole entry): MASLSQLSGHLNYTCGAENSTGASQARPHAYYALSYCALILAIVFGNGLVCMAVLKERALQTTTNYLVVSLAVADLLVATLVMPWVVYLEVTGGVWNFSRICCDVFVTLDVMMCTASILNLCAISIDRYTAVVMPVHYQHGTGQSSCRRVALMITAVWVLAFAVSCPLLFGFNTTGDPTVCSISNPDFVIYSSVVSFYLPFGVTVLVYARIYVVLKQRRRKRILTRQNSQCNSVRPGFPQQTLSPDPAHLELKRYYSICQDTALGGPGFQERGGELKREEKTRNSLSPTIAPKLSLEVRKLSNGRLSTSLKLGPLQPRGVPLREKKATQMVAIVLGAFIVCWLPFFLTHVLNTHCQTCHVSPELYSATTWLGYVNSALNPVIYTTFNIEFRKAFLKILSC

| Structure (SMILES) | Ki [1] [µM] | Ki [2] [µM] | Ki [3] [µM] |
| --- | --- | --- | --- |
| COc1ccc(C2=NO[C@H](CCCN3CCN(C(c4ccc(F)cc4)c4ccc(F)cc4)CC3)C2)cc1OC | 0.08 | 0.0021 | 0.426 |
| CCOc1ccccc1N1CCN(CCC[C@@H]2CC(c3ccc(OC)c(OC)c3)=NO2)CC1 | 0.046 | 0.0021 | 0.507 |
| CCOc1ccccc1N1CCN(CCC[C@H]2CC(c3ccc(OC)c(OC)c3)=NO2)CC1 | 0.07 | 0.0051 | 0.225 |
| COc1ccc(C2=NO[C@@H](CCCN3CCN(C(c4ccc(F)cc4)c4ccc(F)cc4)CC3)C2)cc1OC | 0.4 | 0.02 | 0.483 |
